Data taken from BigSolDB 2.1.

For `NC(=O)N/N=C/c1ccc([N+](=O)[O-])o1`, the solubility (mole fraction) (in DMSO, 293.15 K) was 0.0448, the solubility (mole fraction) (in DMSO, 298.15 K) was 0.0469 and the solubility (mole fraction) (in DMSO, 303.15 K) was 0.0493. The solubility (mole fraction) (in DMSO, 308.15 K) was 0.053, the solubility (mole fraction) (in DMSO, 313.15 K) was 0.0577 and the solubility (mole fraction) (in DMSO, 318.15 K) was 0.0636. The solubility (mole fraction) (in DMSO, 323.15 K) was 0.0709, the solubility (mole fraction) (in NMP, 278.15 K) was 0.0317 and the solubility (mole fraction) (in NMP, 283.15 K) was 0.0354. The solubility (mole fraction) (in NMP, 288.15 K) was 0.0396, the solubility (mole fraction) (in NMP, 293.15 K) was 0.0457 and the solubility (mole fraction) (in NMP, 298.15 K) was 0.0522. It also gave a solubility (mole fraction) (in NMP, 303.15 K) of 0.0591, a solubility (mole fraction) (in NMP, 308.15 K) of 0.0662 and a solubility (mole fraction) (in NMP, 313.15 K) of 0.075. The solubility (mole fraction) (in NMP, 318.15 K) was 0.0853, the solubility (mole fraction) (in NMP, 323.15 K) was 0.0985 and the solubility (mole fraction) (in ethanol, 278.15 K) was 6.72e-05. For the same compound, the solubility (mole fraction) (in ethanol, 283.15 K) was 8.38e-05, the solubility (mole fraction) (in ethanol, 288.15 K) was 0.000102 and the solubility (mole fraction) (in ethanol, 293.15 K) was 0.000123. For the same compound, the solubility (mole fraction) (in ethanol, 298.15 K) was 0.000149, the solubility (mole fraction) (in ethanol, 303.15 K) was 0.000178 and the solubility (mole fraction) (in ethanol, 308.15 K) was 0.000213. The solubility (mole fraction) (in ethanol, 313.15 K) was 0.000258, the solubility (mole fraction) (in ethanol, 318.15 K) was 0.000303 and the solubility (mole fraction) (in ethanol, 323.15 K) was 0.000364. For the same compound, the solubility (mole fraction) (in isopropanol, 278.15 K) was 6.89e-05, the solubility (mole fraction) (in isopropanol, 283.15 K) was 8.99e-05 and the solubility (mole fraction) (in isopropanol, 288.15 K) was 0.000117. It also gave a solubility (mole fraction) (in isopropanol, 293.15 K) of 0.000138, a solubility (mole fraction) (in isopropanol, 298.15 K) of 0.000175 and a solubility (mole fraction) (in isopropanol, 303.15 K) of 0.000223. It also gave a solubility (mole fraction) (in isopropanol, 308.15 K) of 0.00027, a solubility (mole fraction) (in isopropanol, 313.15 K) of 0.000331 and a solubility (mole fraction) (in isopropanol, 318.15 K) of 0.00039. For the same compound, the solubility (mole fraction) (in isopropanol, 323.15 K) was 0.000484, the solubility (mole fraction) (in water, 278.15 K) was 1.32e-05 and the solubility (mole fraction) (in water, 283.15 K) was 1.66e-05. For the same compound, the solubility (mole fraction) (in water, 288.15 K) was 1.96e-05, the solubility (mole fraction) (in water, 293.15 K) was 2.46e-05 and the solubility (mole fraction) (in water, 298.15 K) was 2.98e-05. For the same compound, the solubility (mole fraction) (in water, 303.15 K) was 3.66e-05, the solubility (mole fraction) (in water, 308.15 K) was 4.5e-05 and the solubility (mole fraction) (in water, 313.15 K) was 5.75e-05. For the same compound, the solubility (mole fraction) (in water, 318.15 K) was 6.84e-05 and the solubility (mole fraction) (in water, 323.15 K) was 8.47e-05.
